The values that follow come from ChEMBL document CHEMBL2429737, “Synthesis and study of benzothiazole conjugates in the control of cell proliferation by modulating Ras/MEK/ERK-dependent pathway in MCF-7 cells” (Bioorg Med Chem Lett, 2013).

Structures are written as SMILES. The source made the active and inactive calls. The calls are words filed in the database; no cut-off is given here.

A short description of series [1]: Cytotoxicity against HEK cells at 0.25 to 64 ug after 72 hrs by MTT assay. Conditions: human, hek293, 72 h. In kind it is cell-based.
Series [2] concerns MCF-10A. Description: Selectivity index, ratio of IC50 for human MCF10A cells to IC50 for human MDA-MB-231 cells. In kind it is functional.
Series [3] has as its system MCF-10A. Description: Cytotoxicity against human MCF10A cells after 72 hrs by MTT assay. In kind it is cell-based. Background: Tetrazolium dyes change colour on reduction, which living cells bring about.
Series [4] deals with MCF7. The series can be described thus: Selectivity index, ratio of IC50 for human MCF10A cells to IC50 for human MCF7 cells. In kind it is functional.
For series [5], the system named is MDA-MB-231. The series can be described thus: Cytotoxicity against human MDA-MB-231 cells after 72 hrs by MTT assay. In kind it is functional, cell-based. The following applies: MDA-MB-231, 72 h.
In series [6] the test system is MCF7. The series can be described thus: Cytotoxicity against human MCF7 cells after 72 hrs by MTT assay. Conditions: MCF7, 72 h. In kind it is functional, cell-based.
Series [7] relates to MCF7. The series can be described thus: Cytotoxicity against human MCF7 cells after 48 hrs by SRB assay. In kind it is functional. Conditions: MCF7, 48 h. On the technique in general: In SRB staining, fixed cells bind dye roughly in proportion to their protein.
In series [8] the test system is MDA-MB-231. The series can be described thus: Cytotoxicity against human MDA-MB-231 cells after 48 hrs by SRB assay. In kind it is functional. The following applies: MDA-MB-231, 48 h.
In series [9] the test system is MCF7. Description: Cytotoxicity against human MCF7 cells at 4 uM after 72 hrs by MTT assay. In kind it is functional.
The test system of series [10] is MCF7. The series can be described thus: Down regulation of VEGF protein expression in human MCF7 cells at 2 to 4 uM after 24 hrs by Western blotting analysis. In kind it is functional, cell-based.
Series [11] has as its target Mitogen-activated protein kinase; ERK1/ERK2 (Homo sapiens) (UniProt P27361+P28482). Description: Inhibition of ERK1/2 phosphorylation in human MCF7 cells at 2 to 4 uM after 24 hrs by Western blotting analysis. In kind it is cell-based. Background: A western blot detects proteins with antibodies after separation by electrophoresis.
Series [12] deals with MCF7. Description: Down regulation of MEK1 protein expression in human MCF7 cells at 2 to 4 uM after 24 hrs by Western blotting analysis. In kind it is functional, cell-based.
In series [13] the test system is MCF7. The series can be described thus: Down regulation of Ras protein expression in human MCF7 cells at 2 to 4 uM after 24 hrs by Western blotting analysis. In kind it is functional, cell-based.
The test system of series [14] is MCF7. The series can be described thus: Induction of apoptosis in human MCF7 cells assessed as increase in caspase-9 activity at 2 uM after 24 hrs by fluorescence assay.
Series [15] relates to MCF7. Description: Down regulation of integrin alphaVbeta3 protein expression in human MCF7 cells at 2 to 4 uM after 24 hrs by Western blotting analysis.

Sequence of Mitogen-activated protein kinase; ERK1/ERK2 (Homo sapiens) (P27361 whole entry, looked up): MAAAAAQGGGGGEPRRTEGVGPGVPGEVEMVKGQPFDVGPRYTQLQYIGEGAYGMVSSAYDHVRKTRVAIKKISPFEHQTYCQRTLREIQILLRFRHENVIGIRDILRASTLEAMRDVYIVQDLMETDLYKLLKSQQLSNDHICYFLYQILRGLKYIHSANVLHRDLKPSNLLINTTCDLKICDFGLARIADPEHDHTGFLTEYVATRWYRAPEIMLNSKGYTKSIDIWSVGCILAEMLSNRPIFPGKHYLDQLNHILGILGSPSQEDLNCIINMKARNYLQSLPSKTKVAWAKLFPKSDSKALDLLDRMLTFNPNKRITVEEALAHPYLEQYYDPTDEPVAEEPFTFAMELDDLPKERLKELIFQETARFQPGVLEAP
Sequence of Mitogen-activated protein kinase; ERK1/ERK2 (Homo sapiens) (P28482 whole entry, looked up): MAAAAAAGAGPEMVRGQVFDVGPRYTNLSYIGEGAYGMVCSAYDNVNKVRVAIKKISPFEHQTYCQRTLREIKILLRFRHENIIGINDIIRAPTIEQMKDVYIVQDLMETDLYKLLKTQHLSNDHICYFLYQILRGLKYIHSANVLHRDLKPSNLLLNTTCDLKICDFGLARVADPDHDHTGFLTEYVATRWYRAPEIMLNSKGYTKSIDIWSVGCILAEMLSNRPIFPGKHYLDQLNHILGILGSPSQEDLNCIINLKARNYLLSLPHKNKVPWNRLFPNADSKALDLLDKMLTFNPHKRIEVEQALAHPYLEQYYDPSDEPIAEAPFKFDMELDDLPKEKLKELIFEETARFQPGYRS

Consider `COc1ccc(-c2ccc(C)n2-c2ccc(-c3nc4ccc(F)cc4s3)cc2)cc1`, for which the Activity entry in [1] was “Non-toxic”. Also, the results for the “Ratio IC50” value in [2] and in series [4] were 1.98 and 14.85, respectively. The IC50 (usually the concentration that inhibits the measured activity by half) in series [3] was determined as 37.8 µM; in series [5] it was 19 µM; in series [6], 2.54 µM. Moreover, the GI50 (in general, the concentration giving 50% growth inhibition) is 2.12 µM in [7] and 3.07 µM in series [8].

As to `COc1cc2nc(-c3ccc(-n4c(C)ccc4-c4ccc(F)cc4)cc3)sc2c(OC)c1OC`, the Activity result in [1] is “Non-toxic”. In addition, the “Ratio IC50” value in series [2] is 3.29; in [4], 14.83. Further, the IC50 in series [3] was 43.2 µM; in series [5], 13.1 µM; in [6], 2.91 µM. The GI50 in [7] came to 2.67 µM; in [8] it was 3.94 µM.

With `COc1ccc2nc(-c3ccc(-n4c(C)ccc4-c4ccc(C)cc4)cc3)sc2c1`, the Activity result in series [1] is listed as “Non-toxic”. Moreover, the “Ratio IC50” value in series [2] is on record as 1.65; in series [4] it was 11.92. The IC50 turned out to be 34 µM in [3], 20.5 µM in [5] and 2.85 µM in series [6]. For the same molecule, the GI50 in [7] worked out at 2.57 µM; in series [8], 4.01 µM.

Turning to `COc1cc2nc(-c3ccc(-n4c(C)ccc4-c4ccc(C)cc4)cc3)sc2c(OC)c1OC`, the Activity entry in [1] was “Non-toxic”. Besides, the “Ratio IC50” value is on record as 3.45 in series [2] and 13.66 in series [4]. The figures for the IC50 in series [3], in series [5] and in [6] were 42.5 µM, 12.3 µM and 3.11 µM, respectively. Also, the GI50 in series [7] came out at 2.91 µM; in series [8], 4.14 µM.

Consider `Cc1ccc(-c2ccc([N+](=O)[O-])cc2)n1-c1ccc(-c2nc3ccccc3s2)cc1`, for which the Activity result in series [1] is reported as “Non-toxic”. Further, the “Ratio IC50” value came to 3.2 in series [2] and 12.47 in series [4]. In addition, the IC50 in series [3] came to 38.8 µM; in series [5], 12.1 µM; in [6], 3.11 µM. Moreover, the GI50 was determined as 2.54 µM in series [7] and 3.9 µM in [8].

On to `COc1ccc(-c2ccc(C)n2-c2ccc(-c3nc4cc(OC)c(OC)c(OC)c4s3)cc2)cc1`, for which the Activity entry in [1] is given as “Non-toxic”; in series [9], 50%. Also, the “Ratio IC50” value in [2] is 3.5; in series [4], 19.945. The IC50 in series [3] worked out at 43.9 µM; in [5] it was 12.5 µM; in [6] it was 2.2 µM. For the same molecule, the values for the GI50 in series [7] and in series [8] were 1.23 µM and 2.24 µM, respectively.

On to `COc1ccc2nc(-c3ccc(-n4c(C)ccc4-c4ccc([N+](=O)[O-])cc4)cc3)sc2c1`, for which the Activity entry in series [1] was “Non-toxic”. Further, the “Ratio IC50” value in series [2] is 2.74; in [4], 25.3. Moreover, the results for the IC50 in series [3] and in series [5] were 34.9 µM and 12.7 µM, respectively. Further, the GI50 in [7] is 3.17 µM; in [8], 4.56 µM.

Consider `Cc1ccc(-c2ccc(C)n2-c2ccc(-c3nc4ccc(F)cc4s3)cc2)cc1`, for which the Activity result in series [1] is “Non-toxic”. Moreover, the “Ratio IC50” value in [2] is 2.01; in series [4], 11.3. The IC50 in series [3] was determined as 33.6 µM; in series [5], 16.7 µM; in series [6] it was 2.97 µM. The results for the GI50 in [7] and in series [8] were 2.15 µM and 3.14 µM, respectively.

For the molecule `Cc1ccc(-c2ccc([N+](=O)[O-])cc2)n1-c1ccc(-c2nc3ccc(F)cc3s2)cc1`, the Activity entry in [1] was “Non-toxic”. Moreover, the “Ratio IC50” value in series [2] is 2.29; in series [4], 16.4. Also, the IC50 in series [3] was 39 µM; in series [5] it was 17 µM; in series [6], 2.37 µM. Moreover, the GI50 in [7] came to 0.918 µM; in [8], 1.67 µM.

On to `COc1cc(-c2ccc(C)n2-c2ccc(-c3nc4ccccc4s3)cc2)cc(OC)c1OC`, for which the Activity result in series [1] is “Non-toxic”. Also, the “Ratio IC50” value in series [2] is 2.42; in [4], 8.87. Moreover, the IC50 was 38.8 µM in series [3], 16 µM in [5] and 4.37 µM in [6]. The GI50 in series [7] worked out at 2.34 µM; in [8], 3.45 µM.

`COc1ccc(-c2ccc(C)n2-c2ccc(-c3nc4ccc(OC)cc4s3)cc2)cc1`: in [1], the Activity entry was “Non-toxic”. Further, the “Ratio IC50” value in series [2] is given as 2.23; in series [4] it was 6.36. Moreover, the IC50 amounted to 30.6 µM in series [3], 12.7 µM in series [5] and 4.83 µM in series [6]. Moreover, the GI50 in series [7] was 3.09 µM; in series [8], 4.12 µM.

Consider `COc1ccc(-c2ccc(C)n2-c2ccc(-c3nc4ccccc4s3)cc2)cc1`, for which the Activity entry in series [1] is “Non-toxic”. Besides, the “Ratio IC50” value in [2] was determined as 2.44; in series [4] it was 11.13. In addition, the IC50 came to 36.3 µM in series [3], 14.8 µM in series [5] and 3.25 µM in series [6]. Also, the GI50 in series [7] came to 2.78 µM; in [8], 3.99 µM.

On to `Cc1ccc(-c2ccc(C)n2-c2ccc(-c3nc4ccccc4s3)cc2)cc1`, for which the Activity entry in [1] was “Non-toxic”. The “Ratio IC50” value was determined as 1.71 in series [2] and 9.1 in series [4]. Besides, the values for the IC50 in [3], in series [5] and in series [6] were 30.6 µM, 17.8 µM and 3.1 µM, respectively. Moreover, the GI50 stood at 2.5 µM in series [7] and 4.4 µM in series [8].

`COc1cc([C@@H]2c3cc4c(cc3[C@@H](O[C@@H]3O[C@@H]5CO[C@@H](C)O[C@H]5[C@H](O)[C@H]3O)[C@H]3COC(=O)[C@H]23)OCO4)cc(OC)c1O` [ETOPOSIDE]: the result in series [10], in series [12], in series [13], in [14] and in series [15] was Active. Besides, the inhibition result in series [11] was “Active”. For the same molecule, the “Ratio IC50” value in series [2] amounted to 24.17; in series [4] it was 30.21. The IC50 in series [3] was determined as 36.3 µM; in [5], 1.5 µM; in series [6] it was 1.2 µM. Moreover, the GI50 in series [7] was found to be 0.87 µM; in series [8], 1.67 µM.

As for `COc1cc(-c2ccc(C)n2-c2ccc(-c3nc4ccc(F)cc4s3)cc2)cc(OC)c1OC`, in series [1], the Activity entry is given as “Non-toxic”. The “Ratio IC50” value is 2.6 in [2] and 16.93 in series [4]. The results for the IC50 in series [3], in series [5] and in [6] were 40 µM, 15.4 µM and 2.36 µM, respectively. Moreover, the GI50 was 1.41 µM in series [7] and 3 µM in series [8].

As for `Cc1ccc(-c2ccc(F)cc2)n1-c1ccc(-c2nc3ccccc3s2)cc1`, the Activity result in series [1] is on record as “Non-toxic”. Further, the “Ratio IC50” value in series [2] is on record as 3.4; in [4], 12.57. For the same molecule, the results for the IC50 in [3], in series [5] and in series [6] were 40 µM, 11.8 µM and 3.18 µM, respectively. In addition, the GI50 came out at 2.62 µM in series [7] and 4.34 µM in [8].

For the molecule `COc1ccc2nc(-c3ccc(-n4c(C)ccc4-c4cc(OC)c(OC)c(OC)c4)cc3)sc2c1`, the Activity entry in series [1] was “Non-toxic”; in series [9], 50%. The result in series [10], in [12], in series [13], in series [14] and in [15] was Active. Besides, the inhibition result in [11] was “Active”. Moreover, the “Ratio IC50” value in series [2] is 2.92; in series [4] it was 24.84. The figures for the IC50 in series [3], in [5] and in series [6] were 37.8 µM, 12.9 µM and 1.52 µM, respectively. Moreover, the GI50 in series [7] worked out at 0.92 µM; in [8], 1.76 µM.

`Cc1ccc(-c2ccc(F)cc2)n1-c1ccc(-c2nc3ccc(F)cc3s2)cc1`: the Activity entry in series [1] is “Non-toxic”. Besides, the “Ratio IC50” value in series [2] is recorded as 2.68; in series [4], 13.48. Further, the IC50 in series [3] is 37.8 µM; in series [5] it was 14.1 µM; in series [6] it was 2.8 µM. For the same molecule, the GI50 in series [7] was determined as 1.79 µM; in series [8] it was 3.03 µM.

On to `COc1ccc2nc(-c3ccc(-n4c(C)ccc4-c4ccc(F)cc4)cc3)sc2c1`, for which, in [1], the Activity entry is listed as “Non-toxic”. Moreover, the “Ratio IC50” value is reported as 2.77 in series [2] and 13.67 in series [4]. Also, the IC50 in series [3] came to 38.3 µM; in series [5] it was 13.8 µM; in [6], 2.8 µM. For the same molecule, the GI50 was 2.48 µM in series [7] and 4.06 µM in [8].
